In patent US8497365B2, “Cyclodextrin-based polymers for therapeutics delivery” (priority 2007, dated 2013):
≈ marks a conversion by molar mass, not a printed value. Read-outs that look alike come from different tables or passages of the source.

Experiments:
[1] = test system: human ovarian carcinoma cell line A2780; assay: Cytotoxicity of etoposide derivatives, MTS assay; format: cell-based; details: A2780, 72 h
Protocol: The cytotoxicity of drug-polymer conjugates and linker-drug precursors was determined in the human ovarian carcinoma cell line A2780. […] 10,000 cells per well were seeded in a 96-well plate and incubated at 37° C. for 24 hours, at which time drug was added to triplicate wells at various concentrations. After 72 hours of incubation at 37° C. in the presence of drug, cells were washed with PBS, incubated for 1 hour with an MTS solution, and analyzed according to manufacturer's instructions (CellTiter 96 one solution cell proliferation assay, Promega, Madison, Wis.).

[2] = test system: HT-29 colorectal carcinoma xenografts; assay: Efficacy study in subcutaneous HT29 xenograft; details: for Deaths TR (treatment related) / Regressions CR (complete regression) / Regressions PR (partial regression) / Regressions TFS (tumor-free survivor): n=10; for Median TTE (time to endpoint): endpoint 1000 mm^3 or Day 90
Protocol: Efficacy was evaluated in nude mice bearing subcutaneously implanted HT-29 colorectal carcinoma xenografts. HRLN female nu/nu mice were set up with 1 mm^3 HT-29 tumor fragments s.c. in the flank. The pair match was then done when the tumors reached an average size of 80 to 120 mg and was followed by beginning treatment. Dosing solutions were prepared daily and body weight was determined bi-weekly until the end of the study. Caliper measurements were taken bi-weekly to the end of the study. Animals were monitored individually, and the endpoint of the experiment was a tumor volume of 1 g or 90 days, whichever came first. […] When the endpoint was reached, the animals were euthanized.
Tubulysin A was administered as a solution in 10% DMSO:1% Tween 80:89% Saline. The vehicle was 10% DMSO:1% Tween 80:89% Saline.

[3] = neutral pH
[4] = for Day of mean BW Nadir / # of TR (treatment related deaths) / Avg. Day of TR: qwkx3 iv
Protocol: HRLN female nu/nu mice were set up and dosing solutions were prepared. Body weight was determined biweekly until the end of the study. The endpoint was where mean weight loss exceeded 20% or >10% of animals in a group died, dosing was immediately stopped. Moribund animals were euthanized following PRC SOP. All animals were euthanized 14 days post final dose.

[5] = test system: NCI-H1299 (lung) cells
[6] = test system: HT-29 (colon) cells; assay: Antiproliferative activity in vitro; format: cell-based, human
[7] = test system: A2780 (ovarian) cells

With COc1cc([C@@H]2c3cc4c(cc3[C@@H](O[C@@H]3O[C@@H]5CO[C@@H](C)O[C@H]5[C@H](O)[C@H]3O)[C@H]3COC(=O)[C@H]23)OCO4)cc(OC)c1O [etoposide] the IC50 [1] was 200 nM.

In the case of CC[C@]1(O)C[C@@H]2CN(CCc3c([nH]c4ccccc34)[C@@](C(=O)OC)(c3cc4c(cc3OC)N(C)[C@H]3[C@@](O)(C(=O)OC)[C@H](OC(C)=O)[C@]5(CC)C=CCN6CC[C@]43[C@@H]65)C2)C1 [Vinblastine], the “antitumor effectiveness compared to CDP-PEG-SS-Tubulysin” value ([2]; 4 mg/kg qwkx3 i.v.) is reported as “significantly less effective”, the “% TGD” value ([2]; 4 mg/kg qwkx3 i.v. (Group 3)) is reported as 33.89% and the “BW Nadir (%)” value ([2]; 4 mg/kg qwkx3 i.v. (Group 3)) is reported as −3.60%. The “Statistical Significance vs G1 (vehicle)” value ([2]; 4 mg/kg qwkx3 i.v. (Group 3)) was “** (** = 0.001< P < 0.01)”, the “Statistical Significance vs G4 (CDP-S-S-TUB qwkx3)” value ([2]; 4 mg/kg qwkx3 i.v. (Group 3)) was “*** (*** = P < 0.001)” and the “TC (tumor growth delay, T−C)” value ([2]; 4 mg/kg qwkx3 i.v. (Group 3)) was 11.4 days. For the same compound, the “Deaths TR (treatment related)” value ([2]; 4 mg/kg qwkx3 i.v. (Group 3)) was 0, the “Regressions CR (complete regression)” value ([2]; 4 mg/kg qwkx3 i.v. (Group 3)) was 0 and the “Regressions PR (partial regression)” value ([2]; 4 mg/kg qwkx3 i.v. (Group 3)) was 0. The “Regressions TFS (tumor-free survivor)” value ([2]; 4 mg/kg qwkx3 i.v. (Group 3)) was 0 and the “Median TTE (time to endpoint)” value ([2]; 4 mg/kg qwkx3 i.v. (Group 3)) was 45.05.

For CC[C@H](C)[C@H](NC(=O)[C@H]1CCCCN1C)C(=O)N(COC(=O)CC(C)C)[C@H](C[C@@H](OC(C)=O)c1nc(C(=O)N[C@@H](Cc2ccc(O)cc2)C[C@H](C)C(=O)O)cs1)C(C)C [Tubulysin A, tubulysin A], the solubility in water [3] was 100 µg/mL (≈ 118 µM), the “Day of mean BW Nadir” value ([4]; 0.05 mg/kg) was 5 days and the “# of TR (treatment related deaths)” value ([4]; 0.05 mg/kg, n=5) was 0. The “Avg. Day of TR” value ([4]; 0.3 mg/kg) was 9, the “Day of mean BW Nadir” value ([4]; 0.3 mg/kg) was 8 days and the “# of TR (treatment related deaths)” value ([4]; 0.3 mg/kg, n=4) was 4. The “Avg. Day of TR” value ([4]; 1 mg/kg) was 4, the “Day of mean BW Nadir” value ([4]; 1 mg/kg) was 3 days and the “# of TR (treatment related deaths)” value ([4]; 1 mg/kg, n=4) was 4. For the same compound, the “Avg. Day of TR” value ([4]; 3 mg/kg) was 3, the “Day of mean BW Nadir” value ([4]; 3 mg/kg) was 2 days and the “# of TR (treatment related deaths)” value ([4]; 3 mg/kg, n=4) was 4. For the same compound, the “maximum tolerated dose (MTD)” value ([4]; nude mice, conjugate in Tubulysin equivalents) was 0.05 mg/kg, the IC50 [5] was 2.8 nM and the IC50 [6] was 1.3 nM. The “% TGD” value ([2]; 0.1 mg/kg qwkx3 i.v. (Group 2)) was 2.42%, the “BW Nadir (%)” value ([2]; 0.1 mg/kg qwkx3 i.v. (Group 2)) was −26.80% and the “TC (tumor growth delay, T−C)” value ([2]; 0.1 mg/kg qwkx3 i.v. (Group 2)) was 0.81 days. For the same compound, the “Deaths TR (treatment related)” value ([2]; 0.1 mg/kg qwkx3 i.v. (Group 2)) was 5, the “Regressions CR (complete regression)” value ([2]; 0.1 mg/kg qwkx3 i.v. (Group 2)) was 0 and the “Regressions PR (partial regression)” value ([2]; 0.1 mg/kg qwkx3 i.v. (Group 2)) was 0. The “Regressions TFS (tumor-free survivor)” value ([2]; 0.1 mg/kg qwkx3 i.v. (Group 2)) was 0, the “Median TTE (time to endpoint)” value ([2]; 0.1 mg/kg qwkx3 i.v. (Group 2)) was 34.46 and the mortality ([2]; 0.1 mg/kg qwkx3 i.v., HT-29 xenograft mice) was 50%. For the same compound, the “maximum body weight loss” value ([2]; 0.1 mg/kg qwkx3 i.v., on day 26) was 26.8%, the “toxicity of the free drug” value ([2]; even at 0.1 mg/kg) was “severely toxic” and the IC50 [7] was 2.4 nM.
